In PubChem BioAssay AID256 (DTP/NCI, 2004):
Where “and” joins values, the source holds several entries; their conditions need not be identical. Equal values may be shown once. Inconclusive results and toxic doses are left out. The calls were made as follows: active = survival T/C of 150% or more; inactive = T/C below 125% in these data.

Test system: CD2F1 mice, L1210 leukemia ip, survival T/C
Experiment: NCI In Vivo Anticancer Drug Screen. Data for tumor model L1210 Leukemia (intraperitoneal) in CD2F1 (CDF1) mice
Conditions: higher = longer survival
Procedure, shortened: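 Implant tumor; dose compound or vehicle; measure endpoint in both groups; report treated divided by control.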

[1] = endpoint: mean survival time, dose: 100.0 mg/kg/injection, schedule: Q04DX003 (ip), vehicle: saline with Tween-80
[2] = endpoint: mean survival time, dose: 200.0 mg/kg/injection, schedule: Q04DX003 (ip), vehicle: saline with Tween-80
[3] = endpoint: mean survival time, dose: 400.0 mg/kg/injection, schedule: Q04DX003 (ip), vehicle: saline with Tween-80
[4] = endpoint: mean survival time, dose: 100.0 mg/kg/injection, schedule: Q01DX009 (ip), vehicle: saline with Tween-80
[5] = endpoint: mean survival time, dose: 200.0 mg/kg/injection, schedule: Q01DX009 (ip), vehicle: saline with Tween-80
[6] = endpoint: mean survival time, dose: 400.0 mg/kg/injection, schedule: Q01DX009 (ip), vehicle: saline with Tween-80
[7] = endpoint: mean survival time, dose: 50.0 mg/kg/injection, schedule: Q01DX009 (ip), vehicle: saline with Tween-80
[8] = endpoint: mean survival time, dose: 100.0 mg/kg/injection, schedule: Q04DX002 (ip), vehicle: saline with Tween-80
[9] = endpoint: mean survival time, dose: 12.5 mg/kg/injection, schedule: Q01DX009 (ip), vehicle: saline
[10] = endpoint: mean survival time, dose: 25.0 mg/kg/injection, schedule: Q01DX009 (ip), vehicle: saline

Measured: T/C

O=C(Nc1cc2ccccc2o1)O/N=C/c1ccccn1
inactive: [1] 92 % of control | [2] 92 % of control | [3] 86 % of control

C=CCNS(=O)(=O)c1ccc(C)cc1
inactive: [4] 93 % of control | [1] 98 % of control | [5] 100 % of control | [2] 98 % of control | [6] 90 % of control | [3] 94 % of control

O=c1ccc2ccc(O)cc2o1
inactive: [7] 101 % of control | endpoint: mean survival time, dose: 100.0 mg/kg/injection, schedule: Q01DX001 (ip), vehicle: saline 103 % of control | [4] 93 % of control | endpoint: mean survival time, dose: 200.0 mg/kg/injection, schedule: Q01DX001 (ip), vehicle: saline 108 % of control | [5] 97 % of control | endpoint: mean survival time, dose: 400.0 mg/kg/injection, schedule: Q01DX001 (ip), vehicle: saline 103 % of control

CN(C)C(=O)Oc1cccc(NC(=O)Nc2cccc(OC(=O)N(C)C)c2)c1
inactive: endpoint: mean survival time, dose: 100.0 mg/kg/injection, schedule: Q01DX001 (ip), vehicle: saline with Tween-80 105 % of control | endpoint: mean survival time, dose: 200.0 mg/kg/injection, schedule: Q01DX001 (ip), vehicle: saline with Tween-80 98 % of control | endpoint: mean survival time, dose: 400.0 mg/kg/injection, schedule: Q01DX001 (ip), vehicle: saline with Tween-80 97 % of control

Cc1cc2nc3ccc(=[N+](C)C)cc-3sc2cc1N
inactive: endpoint: mean survival time, dose: 25.0 mg/kg/injection, schedule: Q04DX003 (ip), vehicle: saline 109 % of control | endpoint: mean survival time, dose: 50.0 mg/kg/injection, schedule: Q04DX003 (ip), vehicle: saline 102 % of control

N#C[Se-].c1ccc([Te+](c2ccccc2)c2ccccc2)cc1
inactive: endpoint: median survival time, dose: 1.56 mg/kg/injection, schedule: Q01DX009 (ip), vehicle: Klucel (hydroxypropylcellulose) (HPC) 109 % of control | endpoint: median survival time, dose: 3.12 mg/kg/injection, schedule: Q01DX009 (ip), vehicle: Klucel (hydroxypropylcellulose) (HPC) 104 % of control | endpoint: median survival time, dose: 6.25 mg/kg/injection, schedule: Q01DX009 (ip), vehicle: Klucel (hydroxypropylcellulose) (HPC) 105 % of control | endpoint: median survival time, dose: 12.5 mg/kg/injection, schedule: Q01DX009 (ip), vehicle: Klucel (hydroxypropylcellulose) (HPC) 103 % of control

COC(=O)C1(C)CCOC1=O (configuration not stated)
inactive: endpoint: mean survival time, dose: 100.0 mg/kg/injection, schedule: Q04DX002 (ip), vehicle: saline 107 % of control | endpoint: mean survival time, dose: 200.0 mg/kg/injection, schedule: Q04DX002 (ip), vehicle: saline 98 % of control | endpoint: mean survival time, dose: 400.0 mg/kg/injection, schedule: Q04DX002 (ip), vehicle: saline 102 % of control

CCC(C)C(=O)CN(C)C (configuration not stated)
inactive: endpoint: mean survival time, dose: 100.0 mg/kg/injection, schedule: Q04DX003 (ip), vehicle: saline 100 % of control | endpoint: mean survival time, dose: 200.0 mg/kg/injection, schedule: Q04DX003 (ip), vehicle: saline 96 % of control

O=C(Cn1ccc(=O)[nH]c1=O)c1c[nH]c2ccccc12
inactive: [8] 108 % of control | endpoint: mean survival time, dose: 200.0 mg/kg/injection, schedule: Q04DX002 (ip), vehicle: saline with Tween-80 108 % of control | endpoint: mean survival time, dose: 400.0 mg/kg/injection, schedule: Q04DX002 (ip), vehicle: saline with Tween-80 104 % of control

NNC1CC2CCC1C2 (configuration not stated)
inactive: [9] 95 % of control | [10] 93 % of control

CSc1ncnc2c1ccn2C1OC(COP(=O)(O)O)C(O)C1O (configuration not stated)
inactive: endpoint: mean survival time, dose: 12.5 mg/kg/injection, schedule: Q01DX005 (ip), vehicle: water 105 % of control | endpoint: mean survival time, dose: 25.0 mg/kg/injection, schedule: Q01DX005 (ip), vehicle: water 108 % of control and 111 % of control | endpoint: mean survival time, dose: 50.0 mg/kg/injection, schedule: Q01DX005 (ip), vehicle: water 114 % of control and 109 % of control | endpoint: mean survival time, dose: 150.0 mg/kg/injection, schedule: Q01DX005 (ip), vehicle: water 121 % of control

c1ccc(-c2nnc(-c3ccccn3)nn2)nc1
inactive: endpoint: mean survival time, dose: 12.5 mg/kg/injection, schedule: Q01DX009 (ip), vehicle: Klucel (hydroxypropylcellulose) (HPC) 103 % of control | endpoint: mean survival time, dose: 25.0 mg/kg/injection, schedule: Q01DX009 (ip), vehicle: Klucel (hydroxypropylcellulose) (HPC) 101 % of control | endpoint: mean survival time, dose: 50.0 mg/kg/injection, schedule: Q01DX009 (ip), vehicle: Klucel (hydroxypropylcellulose) (HPC) 106 % of control | endpoint: mean survival time, dose: 100.0 mg/kg/injection, schedule: Q01DX009 (ip), vehicle: Klucel (hydroxypropylcellulose) (HPC) 101 % of control | endpoint: mean survival time, dose: 200.0 mg/kg/injection, schedule: Q01DX009 (ip), vehicle: Klucel (hydroxypropylcellulose) (HPC) 95 % of control | endpoint: mean survival time, dose: 400.0 mg/kg/injection, schedule: Q01DX009 (ip), vehicle: Klucel (hydroxypropylcellulose) (HPC) 101 % of control

Cc1ccc(-c2nc(SCc3ccccc3)[nH]c(=O)c2CCO)cc1
inactive: endpoint: mean survival time, dose: 100.0 mg/kg/injection, schedule: Q04DX003 (ip), vehicle: Klucel (hydroxypropylcellulose) (HPC) 93 % of control | endpoint: mean survival time, dose: 200.0 mg/kg/injection, schedule: Q04DX003 (ip), vehicle: Klucel (hydroxypropylcellulose) (HPC) 96 % of control | endpoint: mean survival time, dose: 400.0 mg/kg/injection, schedule: Q04DX003 (ip), vehicle: Klucel (hydroxypropylcellulose) (HPC) 91 % of control

COc1ccc(OC)c(CCN)c1
inactive: endpoint: mean survival time, dose: 12.5 mg/kg/injection, schedule: Q01DX009 (ip), vehicle: saline with Tween-80 101 % of control | endpoint: mean survival time, dose: 25.0 mg/kg/injection, schedule: Q01DX009 (ip), vehicle: saline with Tween-80 102 % of control | endpoint: mean survival time, dose: 25.0 mg/kg/injection, schedule: Q04DX003 (ip), vehicle: saline with Tween-80 100 % of control | [7] 93 % of control | endpoint: mean survival time, dose: 50.0 mg/kg/injection, schedule: Q04DX003 (ip), vehicle: saline with Tween-80 97 % of control | [1] 108 % of control

COc1ccc(NC(=O)Nc2ccccc2Cl)c(OC)c1
inactive: endpoint: mean survival time, dose: 25.0 mg/kg/injection, schedule: Q04DX002 (ip), vehicle: saline with Tween-80 94 % of control | endpoint: mean survival time, dose: 50.0 mg/kg/injection, schedule: Q04DX002 (ip), vehicle: saline with Tween-80 87 % of control | [8] 102 % of control

O=C(/C=C(\Cl)C(=O)NO)NO
inactive: endpoint: mean survival time, dose: 6.25 mg/kg/injection, schedule: Q01DX009 (ip), vehicle: saline 101 % of control and 103 % of control | [9] 94 % of control and 104 % of control | [10] 95 % of control and 100 % of control | endpoint: mean survival time, dose: 50.0 mg/kg/injection, schedule: Q01DX009 (ip), vehicle: saline 115 % of control and 108 % of control | endpoint: mean survival time, dose: 100.0 mg/kg/injection, schedule: Q01DX009 (ip), vehicle: saline 113 % of control and 95 % of control

COc1cc(NC(=O)CC(C)=O)c(OC)cc1Cl
inactive: [4] 96 % of control | [5] 94 % of control | [6] 91 % of control

CCN1CCS/C1=C\C=C\C1=[N+](CC)CCS1
inactive: endpoint: mean survival time, dose: 1.25 mg/kg/injection, schedule: Q01DX001 (ip), vehicle: other 98 % of control | endpoint: mean survival time, dose: 2.5 mg/kg/injection, schedule: Q01DX001 (ip), vehicle: other 101 % of control

COc1nc(NC2OCC(O)C(O)C2O)c(C(C)=O)c(=O)n1C (configuration not stated)
inactive: endpoint: median survival time, dose: 12.5 mg/kg/injection, schedule: Q01DX005 (ip), vehicle: saline with Tween-80 91 % of control | endpoint: median survival time, dose: 25.0 mg/kg/injection, schedule: Q01DX005 (ip), vehicle: saline with Tween-80 98 % of control | endpoint: median survival time, dose: 50.0 mg/kg/injection, schedule: Q01DX005 (ip), vehicle: saline with Tween-80 97 % of control | endpoint: median survival time, dose: 100.0 mg/kg/injection, schedule: Q01DX005 (ip), vehicle: saline with Tween-80 96 % of control | endpoint: median survival time, dose: 200.0 mg/kg/injection, schedule: Q01DX005 (ip), vehicle: saline with Tween-80 96 % of control

CC[N+](C)(CC)Cc1ccc([NH-])c([NH-])c1.[Cl][Pt+2][Cl]
inactive: endpoint: mean survival time, dose: 3.13 mg/kg/injection, schedule: Q04DX003 (ip), vehicle: water 90 % of control | endpoint: mean survival time, dose: 6.25 mg/kg/injection, schedule: Q04DX003 (ip), vehicle: water 95 % of control | endpoint: mean survival time, dose: 12.5 mg/kg/injection, schedule: Q04DX003 (ip), vehicle: water 94 % of control

CCO/C=C/C(=O)NC(=O)NC1CC(CO)CC1O (configuration not stated)
inactive: [7] 97 % of control | [4] 97 % of control | [5] 105 % of control
